Experimental data published in patent publication US20100093643A1 (priority 2006, published 2010).
Several values for one entry are separate records, joined by “and”; a condition that tells them apart may be missing. Identical values can stand only once. Like-named read-outs stand apart in the source and are kept apart here.

Key:
[1] = system: peripheral opiate receptors, mouse vas deferens (MVD); assay: MVD bioassay, suppression of electrically induced contraction
Description: Brit. J. Pharmacol., 35, 10-28]. The longitudinal muscle of ileum from guinea pig of any sex (weight 350-500 g) was carefully separated from underlying circular muscle and placed into a small bath with Krebs solution at 36° C.
The solution was constantly aerated. A constant load of 0.2 g was applied to the tissue. The tissue was stimulated by means of the ring platinum electrodes by single impulses of […] duration with 0.1 Hz frequency. […] Vas deferens of mice (weight 27 to 30 g) were placed into a bath with modified Krebs solution (not containing magnesium sulphate) at 31° C. The substances under study were dissolved in distilled water. The inhibiting activity of the compounds was determined by accumulating doses, adding increasing concentrations of the compounds without washing. The activity of the preparations was expressed as IC50 in nmol/l. The results obtained in 8-10 tests were statistically processed using Student's criterion.

[2] = system: BALB mice under normobaric hypoxic hypoxia; assay: Antihypoxic action, lifetime of mice under normobaric hypoxic hypoxia; type: in vivo, mouse
Description: Antihypoxic action of the new enkephalin analogue (1) was determined by the measurement of lifetime duration in mice under the normobaric hypoxic hypoxia conditions.
The experiments were conducted on BALB-bread mice weighing 20 to 22 g. The normobaric hypoxic hypoxia conditions were modelled by placing the animals in hermetic camera, containing Ca(OH)2 to absorb the excess of carbon dioxide. The substances studied were injected intraperitoneally 1 min. before the placing of animals in the hermetic camera. The peptides were used at doses 1.0 mg/kg. […] Sodium oxybutyrate at highest therapeutic dose was used as comparative compound. The lifetime was estimated as the time when the animals stopped making breathing movements.

outbreed male mice = assay: Analgesic activity in vivo, tail pinch method; parameters: species or system mouse
Description: Analgesic activity of enkephalin analogues was determined by a “tail pinch” method [Ueda H.; Amano H.; Shiomi H.; Takagi H. (1979). Eur. J. Pharmacol., 56, 265-268]. […] Ten mice were used in each experiment.
The studied substances were dissolved in sterile physiological solution and injected in J-shaped needles into the brain of conscious mice at a dose of 10 μl. Control animals received 10 μl of sterile physiological solution. Intravenous administration was into the tail vein. Analgesic activity was tested by pinching the mouse tail with an artery clip with 200 g pressure. The mice who bit the clip within one second after application of pinching were selected for assays. Analgesic activity was defined as latency on the biting response greater than 6 sec. The analgesic tests were performed 5, 15, 30, 60 and 90 min after administration and then every 30 min until the analgesic reaction was stopped. The analgesic activity of the peptides was expressed as a percentage of mice not showing the biting response.

[3] = system: rats with ligature of coronary arteries; type: in vivo, rat; parameters: myocardial necrosis size: unit not given here; details: for CPK / HF-CPK / Lactate: blood; for Lethality %: rats with sharp myocardial ischemia
[4] = system: peripheral opiate receptors, guinea pig ileum (GPI, predominantly μ-type of opioid receptor); details: ratio of relative potencies GPI to MVD
[5] = target: T1, peripheral opiate receptors, guinea pig ileum (GPI, predominantly μ-type of opioid receptor) (Cavia porcellus, UniProt A0ACM8Q262); details: GPI assay
T1 construct: other: guinea pig ileum longitudinal muscle, electrical stimulation; GPI Relative potency, %; other: GPI assay
T1 sequence (A0ACM8Q262 1-400): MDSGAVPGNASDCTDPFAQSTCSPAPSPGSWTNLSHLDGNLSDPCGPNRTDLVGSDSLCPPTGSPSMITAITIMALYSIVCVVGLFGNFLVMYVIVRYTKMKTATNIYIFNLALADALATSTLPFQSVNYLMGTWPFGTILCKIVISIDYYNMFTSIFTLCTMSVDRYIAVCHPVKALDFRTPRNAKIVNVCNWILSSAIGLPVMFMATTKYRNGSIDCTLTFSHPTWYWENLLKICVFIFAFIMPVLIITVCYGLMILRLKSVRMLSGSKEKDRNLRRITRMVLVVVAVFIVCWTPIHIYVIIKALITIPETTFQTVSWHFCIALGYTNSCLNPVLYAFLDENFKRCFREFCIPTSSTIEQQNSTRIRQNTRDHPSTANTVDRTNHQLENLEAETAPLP

CD-1 male mice = assay: Analgesic activity in vivo, hot plate method; parameters: species or system mouse
Description: Male Swiss albino mice (CD1), weighing 20-22 g were used throughout the study. The animals were housed in solid bottom polycarbonate cages with access to standard laboratory diet (Laboratory Rodent Diet PK-120) and tap water ad libitum, under controlled environmental conditions (temperature:18-26° C., 8 a.m. to 8 p.m. light-dark cycle). Mice were tested only once.
The Hot-plate-meter represents the thermostatic controllable, electro-heated up surface limited by transparent walls (L: 25 cm, W: 25 cm, H: 35 cm). The forward panel of the device is equipped by buttons for the control of time and a temperature mode (Columbus Instruments).
The i.v. administration was performed via tail vein as a bolus injection. The doses for all animals were calculated on the basis of the last value of the individual body weight.
The animals accurately were placed on the preheated hot plate (55±0.5° C.) after i.v. injection of saline or peptides and the latencies to first paw licking and first jumping were measured. The other behavioral reactions were ignored. The animals were removed from a hot surface after the first jumping. A cut-off time of 180 s was used to avoid tissue damage.
To evaluate the hot-plate test responses, the control latencies (t0) and test latencies (t1) were determined after injection of saline or peptides, respectively. The percentage of the maximal possible effect (% MPE) was calculated as % MPE=(t1−t0)/(t2−t0)×100, where the cut-off time (t2) was 180 s.
The latency for the first jumping is considered as the most indicative in the hot-plate test. The area under the time-response curve was calculated by methods described elsewhere (Cicero and Meyer, 1973), to assess the magnitude of antinociception (FIG. 5, see appendix).
The median analgesic dose (ED50) also has been calculated for this parameter.

[6] = 6 hours after ligature, compound (1) 0.05 mg/kg
[7] = 24 hours after ligature, compound (1) 0.05 mg/kg, nitroglycerine highest therapeutic dose

SMILES: CC(=O)NCCCC(NC(=O)C(N)Cc1ccc(O)cc1)C(=O)NCC(=O)NC(Cc1ccc([N+](=O)[O-])cc1)C(N)=O [Peptide 1, Tyr-(N^δ—Ac)-D-Orn-Gly-Phe(p-NO2)—NH2]
- MVD Relative potency, % ([1]; [Leu^5]-enkephalin = 100): 52%
- IC50 ([1]; mouse vas deferens, electrical stimulation): 38.5 ± 20.1 nM
- lifetime longer than in the control experiments ([2]; 1.0 mg/kg i.p.): 57%
- Duration of life ([2]; 1.0 mg/kg i.p. 1 min before hermetic chamber): 16.9 ± 1.1 min
- Duration of analgesic effect at ED60-80 (outbreed male mice; intracisternal administration): 120 min
- ED50 nmol/animal (dose interval) (outbreed male mice; intracisternal administration): 0.02 (0.01-0.04) nmol/animal
- Relative analgesic activity morphine = 1 (outbreed male mice; intracisternal administration): 60
- Duration of analgesic effect at ED60-80 (outbreed male mice; intravenous administration): 60 min
- ED50 μmol/kg (dose interval) (outbreed male mice; intravenous administration): 8.0 (0-25) μmol/kg
- Relative analgesic activity morphine = 1 (outbreed male mice; intravenous administration): 2 and 2.2
- myocardial necrosis size ([3]; 0.05 mg/kg i.p. 30 min after coronary occlusion, observation time 6 hours): 40.70 ± 1.52
- myocardial necrosis size ([3]; 0.05 mg/kg i.p. 30 min after coronary occlusion, observation time 12 hours): 47.51 ± 1.63
- myocardial necrosis size ([3]; 0.5 mg/kg i.p. 30 min after coronary occlusion, observation time 6 hours): 40.05 ± 1.93
- myocardial necrosis size ([3]; 0.5 mg/kg i.p. 30 min after coronary occlusion, observation time 12 hours): 46.64 ± 2.20
- Glycogen of heart [3, 6]: 1.00 ± 0.12 g/kg
- Glycogen of liver [3, 6]: 6.98 ± 1.02 g/kg
- Glycogen of heart ([3]; 24 hours after ligature, compound (1) 0.05 mg/kg): 1.11 ± 0.17 g/kg
- CPK [3, 6]: 93.5 ± 5.3 units/l
- HF-CPK [3, 6]: 15.3 ± 0.7 units/l
- Lactate [3, 6]: 1.61 ± 0.45 mmol/L
- CPK [3, 7]: 86.6 ± 4.9 units/l
- HF-CPK [3, 7]: 12.3 ± 0.7 units/l
- Lactate [3, 7]: 1.70 ± 0.09 mmol/L
- Lethality % ([3]; 0.05 mg/kg): 33%
- Lethality % ([3]; 0.5 mg/kg): 27%
- GPIrel/MVDrel [4]: 46
- activity compared with morphine [5]: more active than morphine by one order
- ED50 (jump latency) (CD-1 male mice; intravenous administration, time point of 15 min): 1.27 mg/kg
- analgesic activity exceeding that of morphine (CD-1 male mice; intravenous, from ED50 at 15 min): 2 times
